Reference: patent publication US12421232B2, “Kinase inhibitor compounds and compositions and methods of use” (ICAHN SCHOOL OF MEDICINE AT MOUNT SINAI, priority 2018, dated 2025)
Like-named read-outs stand apart in the source and are kept apart here.

What was measured:
Assay in all cases: KINOMEscan Assay (DiscoverX)
Format in all cases: binding
Details in all cases: read-out: % DMSO Ctrl
IRAK4 = molecular target: T1, IRAK4 (Homo sapiens, UniProt Q9NWZ3)
T1 construct: purchased DiscoverX
T1 sequence (Q9NWZ3 1-460): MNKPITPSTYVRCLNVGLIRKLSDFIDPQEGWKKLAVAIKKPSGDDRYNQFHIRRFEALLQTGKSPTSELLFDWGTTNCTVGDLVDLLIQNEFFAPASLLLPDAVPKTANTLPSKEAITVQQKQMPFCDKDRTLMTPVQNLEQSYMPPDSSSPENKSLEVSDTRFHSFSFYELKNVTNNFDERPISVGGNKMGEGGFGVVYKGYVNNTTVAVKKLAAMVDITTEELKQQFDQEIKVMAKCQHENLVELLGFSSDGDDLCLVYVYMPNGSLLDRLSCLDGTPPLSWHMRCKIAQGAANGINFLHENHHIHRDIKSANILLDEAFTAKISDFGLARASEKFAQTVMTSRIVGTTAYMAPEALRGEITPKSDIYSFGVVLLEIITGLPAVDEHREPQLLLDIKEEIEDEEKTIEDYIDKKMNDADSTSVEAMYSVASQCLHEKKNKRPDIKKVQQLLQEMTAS

PDGFRB = molecular target: T2, PDGFRB (Homo sapiens, UniProt P09619)
T2 construct: purchased DiscoverX
T2 sequence (P09619 33-1106): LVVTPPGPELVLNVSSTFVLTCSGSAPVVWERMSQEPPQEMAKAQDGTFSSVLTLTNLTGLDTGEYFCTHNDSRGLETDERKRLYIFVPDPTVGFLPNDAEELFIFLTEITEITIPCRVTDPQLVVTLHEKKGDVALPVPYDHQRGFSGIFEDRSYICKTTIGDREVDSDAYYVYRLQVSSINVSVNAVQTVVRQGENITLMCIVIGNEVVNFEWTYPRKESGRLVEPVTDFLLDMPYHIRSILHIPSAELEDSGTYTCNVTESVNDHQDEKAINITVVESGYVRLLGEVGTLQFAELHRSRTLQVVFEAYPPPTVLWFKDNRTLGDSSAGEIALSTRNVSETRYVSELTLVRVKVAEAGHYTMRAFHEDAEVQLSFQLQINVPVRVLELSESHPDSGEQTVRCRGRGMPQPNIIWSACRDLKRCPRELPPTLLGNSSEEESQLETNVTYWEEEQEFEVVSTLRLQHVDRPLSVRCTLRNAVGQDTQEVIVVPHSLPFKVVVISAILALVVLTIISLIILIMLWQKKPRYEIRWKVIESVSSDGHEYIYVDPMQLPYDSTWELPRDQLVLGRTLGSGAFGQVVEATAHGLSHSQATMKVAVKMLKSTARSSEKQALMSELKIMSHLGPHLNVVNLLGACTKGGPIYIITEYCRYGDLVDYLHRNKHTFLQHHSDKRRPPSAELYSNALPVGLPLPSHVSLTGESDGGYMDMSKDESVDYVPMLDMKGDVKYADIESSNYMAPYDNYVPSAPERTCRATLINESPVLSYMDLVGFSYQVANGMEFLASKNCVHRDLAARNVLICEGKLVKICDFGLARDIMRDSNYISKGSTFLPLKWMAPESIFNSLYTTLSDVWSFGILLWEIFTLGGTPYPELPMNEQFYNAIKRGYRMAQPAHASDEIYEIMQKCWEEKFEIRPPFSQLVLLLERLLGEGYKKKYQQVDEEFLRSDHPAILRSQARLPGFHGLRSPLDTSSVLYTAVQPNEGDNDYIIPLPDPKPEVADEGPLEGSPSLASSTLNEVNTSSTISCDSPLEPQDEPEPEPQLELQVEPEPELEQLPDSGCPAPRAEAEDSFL

PIK3C2G = molecular target: T3, PIK3C2G (Homo sapiens, UniProt O75747)
T3 construct: purchased DiscoverX
T3 sequence (O75747 1-1486): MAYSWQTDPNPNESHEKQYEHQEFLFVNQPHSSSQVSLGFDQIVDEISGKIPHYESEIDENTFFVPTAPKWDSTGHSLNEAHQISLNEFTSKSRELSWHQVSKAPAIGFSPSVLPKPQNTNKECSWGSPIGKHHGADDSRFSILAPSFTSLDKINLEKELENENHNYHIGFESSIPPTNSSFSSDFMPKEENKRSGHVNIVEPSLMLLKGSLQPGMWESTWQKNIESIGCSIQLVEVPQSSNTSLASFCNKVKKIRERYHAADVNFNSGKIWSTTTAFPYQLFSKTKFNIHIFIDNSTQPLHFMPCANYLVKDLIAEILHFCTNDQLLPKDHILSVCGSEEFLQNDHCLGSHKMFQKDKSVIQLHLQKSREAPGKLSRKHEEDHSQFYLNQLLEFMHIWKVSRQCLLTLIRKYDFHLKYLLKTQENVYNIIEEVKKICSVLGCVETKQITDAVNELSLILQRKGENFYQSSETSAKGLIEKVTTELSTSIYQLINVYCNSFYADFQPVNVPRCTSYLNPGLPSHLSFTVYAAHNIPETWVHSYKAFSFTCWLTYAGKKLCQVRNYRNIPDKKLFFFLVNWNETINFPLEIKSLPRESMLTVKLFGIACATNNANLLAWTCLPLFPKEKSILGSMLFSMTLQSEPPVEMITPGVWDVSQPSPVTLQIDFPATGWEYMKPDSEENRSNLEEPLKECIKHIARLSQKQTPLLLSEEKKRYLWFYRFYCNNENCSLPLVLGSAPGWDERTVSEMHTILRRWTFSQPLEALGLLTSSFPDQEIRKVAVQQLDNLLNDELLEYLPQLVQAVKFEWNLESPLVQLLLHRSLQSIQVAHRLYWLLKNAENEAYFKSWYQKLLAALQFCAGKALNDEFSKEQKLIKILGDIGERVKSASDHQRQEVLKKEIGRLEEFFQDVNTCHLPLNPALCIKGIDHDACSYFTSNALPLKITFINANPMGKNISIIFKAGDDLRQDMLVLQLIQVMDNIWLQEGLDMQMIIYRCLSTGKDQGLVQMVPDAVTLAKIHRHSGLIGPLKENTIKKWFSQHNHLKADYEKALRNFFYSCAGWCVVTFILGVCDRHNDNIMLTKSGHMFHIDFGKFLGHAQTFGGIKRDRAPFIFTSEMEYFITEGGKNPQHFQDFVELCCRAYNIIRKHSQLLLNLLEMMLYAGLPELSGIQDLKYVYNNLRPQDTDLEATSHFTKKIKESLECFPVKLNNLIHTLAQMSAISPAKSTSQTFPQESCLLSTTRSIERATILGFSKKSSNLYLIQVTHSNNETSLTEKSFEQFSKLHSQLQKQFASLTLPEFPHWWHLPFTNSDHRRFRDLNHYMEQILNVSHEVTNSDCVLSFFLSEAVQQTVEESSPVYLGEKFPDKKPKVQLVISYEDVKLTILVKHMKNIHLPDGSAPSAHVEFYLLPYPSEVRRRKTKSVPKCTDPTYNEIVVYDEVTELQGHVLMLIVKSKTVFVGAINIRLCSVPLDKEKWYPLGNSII

PIM3 = molecular target: T4, PIM3 (Homo sapiens, UniProt Q86V86)
T4 construct: purchased DiscoverX

ROCK2 = molecular target: T5, ROCK2 (Homo sapiens, UniProt O75116)
T5 construct: purchased DiscoverX
T5 sequence (O75116 whole entry): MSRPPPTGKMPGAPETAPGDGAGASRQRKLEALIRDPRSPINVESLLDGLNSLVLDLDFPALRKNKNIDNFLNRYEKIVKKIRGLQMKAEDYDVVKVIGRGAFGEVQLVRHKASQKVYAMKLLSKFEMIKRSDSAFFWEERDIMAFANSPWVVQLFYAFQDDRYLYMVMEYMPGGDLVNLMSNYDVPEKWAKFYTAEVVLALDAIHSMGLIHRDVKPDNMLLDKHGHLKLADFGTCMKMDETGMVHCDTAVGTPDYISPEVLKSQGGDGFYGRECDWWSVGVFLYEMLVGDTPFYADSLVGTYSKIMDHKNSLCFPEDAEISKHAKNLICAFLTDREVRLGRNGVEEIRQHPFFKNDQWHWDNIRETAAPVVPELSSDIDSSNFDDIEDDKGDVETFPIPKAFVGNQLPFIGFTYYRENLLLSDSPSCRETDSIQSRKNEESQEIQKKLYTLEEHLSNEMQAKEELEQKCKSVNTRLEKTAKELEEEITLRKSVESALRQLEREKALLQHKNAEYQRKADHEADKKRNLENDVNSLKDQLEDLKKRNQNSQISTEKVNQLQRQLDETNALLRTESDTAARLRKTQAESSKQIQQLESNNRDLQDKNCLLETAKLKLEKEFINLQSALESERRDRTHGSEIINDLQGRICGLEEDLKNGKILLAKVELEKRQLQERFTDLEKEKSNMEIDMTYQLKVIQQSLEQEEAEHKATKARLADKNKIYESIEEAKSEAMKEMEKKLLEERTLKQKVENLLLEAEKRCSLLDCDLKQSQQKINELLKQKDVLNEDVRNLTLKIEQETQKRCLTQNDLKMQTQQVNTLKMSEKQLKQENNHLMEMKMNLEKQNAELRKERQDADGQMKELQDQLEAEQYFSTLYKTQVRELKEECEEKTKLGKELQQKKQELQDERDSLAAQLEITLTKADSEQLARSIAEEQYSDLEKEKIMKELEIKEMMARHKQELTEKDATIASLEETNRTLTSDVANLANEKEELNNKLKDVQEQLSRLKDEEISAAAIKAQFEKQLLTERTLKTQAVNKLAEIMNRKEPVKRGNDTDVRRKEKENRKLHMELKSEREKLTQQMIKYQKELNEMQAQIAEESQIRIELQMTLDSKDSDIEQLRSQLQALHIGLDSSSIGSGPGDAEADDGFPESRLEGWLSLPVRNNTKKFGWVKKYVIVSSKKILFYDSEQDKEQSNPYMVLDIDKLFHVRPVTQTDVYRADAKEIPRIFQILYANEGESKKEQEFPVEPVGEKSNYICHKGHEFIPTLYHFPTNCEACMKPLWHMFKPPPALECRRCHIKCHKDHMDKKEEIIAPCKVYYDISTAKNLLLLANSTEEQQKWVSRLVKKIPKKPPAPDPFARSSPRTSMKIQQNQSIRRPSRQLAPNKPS

CSNK2A1 = molecular target: T6, CSNK2A1 (Homo sapiens, UniProt P68400)
T6 construct: purchased DiscoverX
T6 sequence (P68400 whole entry): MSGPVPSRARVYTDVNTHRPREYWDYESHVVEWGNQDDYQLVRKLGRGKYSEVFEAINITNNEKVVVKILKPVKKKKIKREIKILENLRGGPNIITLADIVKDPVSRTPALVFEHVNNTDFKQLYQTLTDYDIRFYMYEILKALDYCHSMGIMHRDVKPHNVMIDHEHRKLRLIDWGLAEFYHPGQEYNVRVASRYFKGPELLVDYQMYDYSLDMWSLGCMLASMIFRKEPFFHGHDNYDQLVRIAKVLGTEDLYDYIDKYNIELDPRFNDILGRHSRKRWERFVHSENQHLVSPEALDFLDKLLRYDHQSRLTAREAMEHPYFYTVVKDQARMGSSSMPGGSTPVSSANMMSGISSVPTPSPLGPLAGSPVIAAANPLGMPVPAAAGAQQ

DYRK1B = molecular target: T7, DYRK1B (Homo sapiens, UniProt Q9Y463)
T7 construct: purchased DiscoverX
T7 sequence (Q9Y463 whole entry): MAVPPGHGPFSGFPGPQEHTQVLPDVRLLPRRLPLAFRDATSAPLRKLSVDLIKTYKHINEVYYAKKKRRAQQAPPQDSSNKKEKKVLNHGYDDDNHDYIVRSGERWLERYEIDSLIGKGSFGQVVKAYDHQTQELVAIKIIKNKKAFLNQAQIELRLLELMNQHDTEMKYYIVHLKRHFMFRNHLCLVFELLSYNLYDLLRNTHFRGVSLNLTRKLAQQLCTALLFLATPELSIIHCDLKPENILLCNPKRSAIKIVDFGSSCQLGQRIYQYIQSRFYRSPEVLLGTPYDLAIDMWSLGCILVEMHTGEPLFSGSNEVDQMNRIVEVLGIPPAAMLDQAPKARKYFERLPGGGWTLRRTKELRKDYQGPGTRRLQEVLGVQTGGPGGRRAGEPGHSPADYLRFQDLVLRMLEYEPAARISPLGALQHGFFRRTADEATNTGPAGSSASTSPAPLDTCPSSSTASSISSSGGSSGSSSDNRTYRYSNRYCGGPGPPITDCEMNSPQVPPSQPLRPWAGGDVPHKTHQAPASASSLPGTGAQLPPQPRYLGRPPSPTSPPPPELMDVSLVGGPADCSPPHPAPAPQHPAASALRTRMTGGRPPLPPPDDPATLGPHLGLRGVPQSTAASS

SMILES	remaining binding at 10 µM (IRAK4; IRAK4, 10 μM)	remaining binding at 10 µM (PDGFRB; PDGFRB, 10 μM)	remaining binding at 10 µM (PIK3C2G; PIK3C2G, 10 μM)	remaining binding at 10 µM (PIM3; PIM3, 10 μM)	remaining binding at 10 µM (ROCK2; ROCK2, 10 μM)	remaining binding at 10 µM (CSNK2A1)	remaining binding at 10 µM (DYRK1B)	remaining binding at 10 µM (IRAK4)	remaining binding at 10 µM (PDGFRB)	remaining binding at 10 µM (PIK3C2G)	remaining binding at 10 µM (PIM3)	remaining binding at 10 µM (ROCK2)	remaining binding at 10 µM (CSNK2A1; CSNK2A1, 10 μM)	remaining binding at 10 µM (DYRK1B; DYRK1B, 10 μM)
COc1ccc2c(c1)[nH]c1c(C)nc(CO)cc12 [Compound 2-8, (1-Methyl-7-methoxy-9H-pyrido[3,4-b]indol-3-yl)methanol]	70%	97%	36%	15%	88%									
COc1ccc2c3ccnc(C)c3n(CCCc3noc(N)n3)c2c1 [Compound 20-13, 3-(3-(7-Methoxy-1-methyl-β-carbolin-9-yl)propyl)-5-amino-1,2,4-oxadiazole]						49%	1%	90%	100%	1.2%	39%	86%		
C#CCn1c2cc(OC)ccc2c2ccnc(C)c21 [Compound 20-23a, 3-(7-Methoxy-1-methyl-β-carbolin-9-yl)-propan-1-yne]				32%				6.4%	77%	38%		16%	46%	1.1%
COc1ccc2c(c1)[nH]c1c(C)nccc12 [Harmine, reference compound]						11%	6.1%				43%			
